This note sets out measurements from BindingDB's records for doi:10.1016/j.bmcl.2005.04.054 (Schering-Plough Research Institute, 2005).

One may read the IC50 as the point on the concentration scale where inhibition reaches its midpoint.

This assay can be described thus: Inhibitory concentration against BaF3 cell line expressed recombinant human CCR3 using the chemotaxis assay.

In the case of `O=C(NCC1CCCN(C2CCN(Cc3ccc(Cl)c(Cl)c3)CC2)C1)c1ccc2ncccc2c1` (stereo unspecified) [Quinoline-6-carboxylic acid [1'-(3,4-dichloro-benzyl)-[1,4']bipiperidinyl-3-ylmethyl]-amide], the IC50 came to 136 nM.
